In experiment [1] the target is Mitogen-activated protein kinase 12 (Homo sapiens) (UniProt P53778). Briefly: Inhibition of recombinant human N-terminal GST-tagged P38gamma (1 to 367 residues) expressed in Escherichia coli assessed as remaining activity at 1 uM using MBP as substrate incubated for 30 mins in presence of [gamma-33P]ATP by filter binding method relative to control.
Experiment [2] deals with Serine/threonine-protein kinase 16 (Homo sapiens) (UniProt O75716). Briefly: Inhibition of recombinant human N-terminal GST-tagged MPSK1 (1 to 305 residues) expressed in Escherichia coli assessed as remaining activity at 1 uM using RRHYYYDTHTNTYYLRTFGHNTRR as substrate incubated for 30 mins in presence of [gamma-33P]ATP by filter binding method relative to control.
The target in experiment [3] is Dual specificity tyrosine-phosphorylation-regulated kinase 3 (Homo sapiens) (UniProt O43781). Briefly: Inhibition of recombinant human N-terminal GST-tagged DYRK3 (1 to 588 residues) expressed in Escherichia coli assessed as remaining activity at 1 uM using KKISGRLSPIMTEQ as substrate incubated for 30 mins in presence of [gamma-33P]ATP by filter binding method relative to control.

Experiment [4] addresses Insulin receptor (Homo sapiens) (UniProt P06213). Briefly: Inhibition of recombinant human N-terminal His6-tagged IR (1001 to 1382 residues) expressed in baculovirus infected Sf21 cells assessed as remaining activity at 1 uM using KKSRGDYMTMQIG as substrate incubated for 30 mins in presence of [gamma-33P]ATP by filter binding method relative to control.
Experiment [5] has as its target Serine/threonine-protein kinase pim-1 (Homo sapiens) (UniProt P11309). Briefly: Inhibition of recombinant human N-terminal His6-tagged PIM1 (2 to 313 residues) expressed in baculovirus infected Sf21 cells assessed as remaining activity at 1 uM using RSRHSSYPAGT as substrate incubated for 30 mins in presence of [gamma-33P]ATP by filter binding method relative to control.

Experiment [6] concerns the target Dual specificity protein kinase TTK (Homo sapiens) (UniProt P33981). Briefly: Inhibition of recombinant human N-terminal His6-tagged TTK (1 to 857 residues) expressed in baculovirus infected Sf21 cells assessed as remaining activity at 1 uM using RSRSRSRSRSRSRSR as substrate incubated for 30 mins in presence of [gamma-33P]ATP by filter binding method relative to control.

Experiment [7] has as its target Homeodomain-interacting protein kinase 2 (Homo sapiens) (UniProt Q9H2X6). Put plainly: Inhibition of recombinant human N-terminal GST-tagged HIPK2 (165 to 564 residues) expressed in Escherichia coli assessed as remaining activity at 1 uM using MBP as substrate incubated for 30 mins in presence of [gamma-33P]ATP by filter binding method relative to control.
The target of experiment [8] is Dual specificity protein kinase CLK2 (Homo sapiens) (UniProt P49760). Briefly: Inhibition of recombinant human N-terminal GST-tagged CLK2 (138 to 499 residues) expressed in baculovirus infected Sf21 cells assessed as remaining activity at 1 uM using RNRYRDVSPFDHSR as substrate incubated for 30 mins in presence of [gamma-33P]ATP by filter binding method relative to control.

In experiment [9] the target is Protein-tyrosine kinase 6 (Homo sapiens) (UniProt Q13882). Put plainly: Inhibition of human BRK at 1 uM using polyEy as substrate in presence of 33P-ATP by ProQinase assay.
Experiment [10] deals with Fibroblast growth factor receptor 1 (Homo sapiens) (UniProt P11362). Put plainly: Inhibition of human FGFR1 at 1 uM using polyEy as substrate in presence of 33P-ATP by ProQinase assay.
Experiment [11] has as its target Tyrosine-protein kinase JAK1 (Homo sapiens) (UniProt P23458). Put plainly: Inhibition of human JAK1 at 1 uM using RBER-IRStide as substrate in presence of 33P-ATP by ProQinase assay.
For experiment [12], the target named is NUAK family SNF1-like kinase 1 (Homo sapiens) (UniProt O60285). Briefly: Inhibition of human ARK5 at 1 uM using RBER-CHKtide as substrate in presence of 33P-ATP by ProQinase assay.
Experiment [13] has as its target Hepatocyte growth factor receptor (Homo sapiens) (UniProt P08581). Briefly: Inhibition of human MET at 1 uM using poly(Ala,Glu,Lys,Tyr) as substrate in presence of 33P-ATP by ProQinase assay.
For experiment [14], the target named is Phosphorylase b kinase gamma catalytic chain, liver/testis isoform (Homo sapiens) (UniProt P15735). Briefly: Inhibition of human PHKG2 at 1 uM using RBER-CHKtide as substrate in presence of 33P-ATP by ProQinase assay.
In experiment [15] the target is Activin receptor type-1B (Homo sapiens) (UniProt P36896). Put plainly: Inhibition of human ACVR1B at 1 uM using RBER-CHKtide as substrate in presence of 33P-ATP by ProQinase assay.
The target in experiment [16] is Mitogen-activated protein kinase 3 (Homo sapiens) (UniProt P27361). Briefly: Inhibition of human ERK1 at 1 uM using RBER-CHKtide as substrate in presence of 33P-ATP by ProQinase assay.
Experiment [17] addresses Serine/threonine-protein kinase mTOR (Homo sapiens) (UniProt P42345). Briefly: Inhibition of human mTOR at 1 uM using casein as substrate in presence of 33P-ATP by ProQinase assay.
The target of experiment [18] is Serine/threonine-protein kinase TBK1 (Homo sapiens) (UniProt Q9UHD2). Briefly: Inhibition of human TBK1 at 1 uM using casein as substrate in presence of 33P-ATP by ProQinase assay.
For experiment [19], the target named is Ephrin type-B receptor 2 (Homo sapiens) (UniProt P29323). Put plainly: Inhibition of human EPHB2 at 1 uM using poly(Ala,Glu,Lys,Tyr) as substrate in presence of 33P-ATP by ProQinase assay.
Experiment [20] concerns the target Dual specificity protein kinase CLK3 (Homo sapiens) (UniProt P49761). Briefly: Inhibition of human CLK3 at 1 uM using RB-S6P as substrate in presence of 33P-ATP by ProQinase assay.
The target in experiment [21] is Calcium/calmodulin-dependent protein kinase type 1D (Homo sapiens) (UniProt Q8IU85). Put plainly: Inhibition of human CAMK1D at 1 uM using RBER-CHKtide as substrate in presence of 33P-ATP by ProQinase assay.
For experiment [22], the target named is G protein-coupled receptor kinase 4 (Homo sapiens) (UniProt P32298). Put plainly: Inhibition of human GRK4 at 1 uM using casein as substrate in presence of 33P-ATP by ProQinase assay.
For experiment [23], the target named is Sphingosine kinase 2 (Homo sapiens) (UniProt Q9NRA0). Put plainly: Inhibition of recombinant human N-terminal His6-tagged SPHK2 (1 to 654 residues) expressed in baculovirus expression system at 1 uM using sphingosine as substrate incubated for 40 mins by ADP-Glo assay.
In experiment [24] the target is Phosphatidylinositol 4,5-bisphosphate 3-kinase catalytic subunit gamma isoform (Homo sapiens, UniProt P48736). Put plainly: Inhibition of PI3Kgamma (unknown origin) using PtdIns(4,5)P2 as substrate preincubated for 20 mins followed by substrate addition and measured after 80 mins by Kinase-Glo assay.

The structures appear in SMILES notation. pIC50: −log10 of the molar value. Active and inactive are the calls of the source. The calls are words filed in the database; no cut-off is given here.

Broadly, the pIC50 is the IC50 on a negative log10 scale, so that one unit is a factor of ten. A lower pIC50 goes with a large IC50. Take `CC(C)(O)CNc1ncc(-c2ccnc(Nc3ccnc(Cl)c3)n2)c(CC2CC2)n1`: the Activity in [1] was found to be 133%; in experiment [2] it was 118%; in experiment [3], 112%; in experiment [4], 109%; in experiment [5], 108%; in experiment [6], 108%. Also, the Activity in [7] turned out to be 96%; in experiment [8], 82%. For the same compound, the inhibition entry in experiment [9], in experiment [10], in experiment [11], in experiment [12], in experiment [13] and in experiment [14] was “inactive” each time. Moreover, the inhibition entry in experiment [15], in experiment [16], in experiment [17], in experiment [18], in experiment [19] and in experiment [20] was “inactive” each time. For the same compound, the inhibition entry in experiment [21], in experiment [22] and in experiment [23] was “inactive” in each case. Besides, the pIC50 in [24] was 5.57.
